Measured values: ChEMBL document CHEMBL5154831 (J Med Chem, 2022)
Values after ≈ are worked out from the molar mass of the structure shown.

Key:
[1] = Toxicity in wild type mouse assessed as effect on kidney size; settings: in vivo
[2] = Elimination rate constant in C57BL/6 mouse at 2 mg/kg, sc by LC-MS analysis; format: ADME, organism-based; settings: in vivo
[3] = Toxicity in wild type mouse assessed as effect on body weight; settings: in vivo
[4] = AUC (0 to t) in C57BL/6 mouse at 2 mg/kg, sc by LC-MS analysis; format: ADME, organism-based; parameters: dose 2 mg/kg, route sc; settings: in vivo
[5] = Tmax in C57BL/6 mouse at 2 mg/kg, sc by LC-MS analysis; format: ADME, organism-based; settings: in vivo
[6] = Equilibrium solubility of compound in water incubated for 24 hrs by UV-spectroscopy method; format: physicochemical
[7] = Half life in C57BL/6 mouse at 2 mg/kg, sc by LC-MS analysis; format: ADME, organism-based; settings: in vivo
[8] = Cmax in C57BL/6 mouse at 2 mg/kg, sc by LC-MS analysis; format: ADME, organism-based; parameters: dose 2 mg/kg, route sc; settings: in vivo
Vasopressin V2 receptor = Vasopressin V2 receptor (Homo sapiens, UniProt P30518); experiment: Displacement of conivaptan-red from SNAP-tagged V2 receptor (unknown origin) expressed in HEK293 cells assessed as inhibition constant measured after 2 hrs by HTRF assay; format: cell-based
Chain of Vasopressin V2 receptor (P30518 whole entry, the tested form may be a part): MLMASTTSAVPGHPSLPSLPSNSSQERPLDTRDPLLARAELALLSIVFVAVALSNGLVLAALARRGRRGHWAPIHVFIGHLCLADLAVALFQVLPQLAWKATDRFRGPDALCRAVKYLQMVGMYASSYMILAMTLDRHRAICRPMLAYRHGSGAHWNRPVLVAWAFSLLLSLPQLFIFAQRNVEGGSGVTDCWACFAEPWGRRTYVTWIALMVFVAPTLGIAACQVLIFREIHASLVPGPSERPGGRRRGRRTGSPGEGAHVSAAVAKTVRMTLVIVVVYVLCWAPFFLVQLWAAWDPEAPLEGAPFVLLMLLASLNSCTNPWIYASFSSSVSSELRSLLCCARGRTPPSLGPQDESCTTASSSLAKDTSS

[9] = biological target: Vasopressin V2 receptor (Rattus norvegicus) (UniProt Q00788); experiment: Ex vivo receptor occupancy at V2R in isolated perfused Sprague-Dawley rat kidney assessed as dissociation half life at 0.1 uM incubated for 30 mins by LC-MS analysis; format: functional, tissue-based
Chain of Vasopressin V2 receptor (Rattus norvegicus) (Q00788 whole entry, the tested form may be a part): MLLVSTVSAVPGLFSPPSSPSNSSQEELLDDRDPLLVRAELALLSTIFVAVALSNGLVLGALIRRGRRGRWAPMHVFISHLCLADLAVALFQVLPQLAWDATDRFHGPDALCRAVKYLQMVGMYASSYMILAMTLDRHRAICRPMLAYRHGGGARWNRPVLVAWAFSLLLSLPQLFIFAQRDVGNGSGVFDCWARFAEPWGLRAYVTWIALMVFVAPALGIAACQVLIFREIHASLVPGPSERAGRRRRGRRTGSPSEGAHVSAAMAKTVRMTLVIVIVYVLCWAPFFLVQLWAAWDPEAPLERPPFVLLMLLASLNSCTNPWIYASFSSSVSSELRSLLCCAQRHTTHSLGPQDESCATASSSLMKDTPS

[10] = Toxicity in wild type mouse assessed as effect on body weight at 2 mg/kg; format: organism-based; settings: in vivo

| k el [2] | AUC(0-t) [4] | Tmax [5] | solubility thermodynamic at 24 h [6] | half-life [7] | Cmax [8] | Ki (Vasopressin V2 receptor) | T1/2 [9] | Compound | Activity [1] | Activity [3] | Activity [10] |
| --- | --- | --- | --- | --- | --- | --- | --- | --- | --- | --- | --- |
| 8.33e-05 s⁻¹ | 527 ng·h/mL | 11.4 min | 2.3 µg/mL (≈ 4.1 µM) | 174 min | 426 ng/mL | 31 nM |  | CCN(CC)CCCNC1CCCN(C(=O)c2ccc(NC(=O)c3ccccc3C)cc2C)c2ccc(Cl)cc21 (stereo not drawn) | Non-Toxic | Non-Toxic |  |
| 3.89e-05 s⁻¹ | 514 ng·h/mL | 4.98 min | 2.3 µg/mL (≈ 3.9 µM) | 324 min | 365 ng/mL |  |  | Cc1ccccc1C(=O)Nc1ccc(C(=O)N2CCCC(NCCCCN3CCOCC3)c3cc(Cl)ccc32)c(C)c1 (stereo not drawn) | Non-Toxic | Non-Toxic |  |
| 0.000667 s⁻¹ | 450 ng·h/mL | 8.4 min | 2.3 µg/mL (≈ 3.9 µM) | 17.4 min | 783 ng/mL |  |  | Cc1ccccc1C(=O)Nc1ccc(C(=O)N2CCCC(NCCC(=O)N3CCOCC3)c3cc(Cl)ccc32)c(C)c1 (stereo not drawn) | Non-Toxic | Non-Toxic |  |
| 2.58e-05 s⁻¹ | 450 ng·h/mL | 8.4 min | 2.3 µg/mL (≈ 3.81 µM) | 450 min | 157 ng/mL |  |  | Cc1ccccc1C(=O)Nc1ccc(C(=O)N2CCCC(NCCCCCN3CCOCC3)c3cc(Cl)ccc32)c(C)c1 (stereo not drawn) | Non-Toxic | Non-Toxic |  |
| 2.75e-05 s⁻¹ | 588 ng·h/mL | 4.98 min | 2.3 µg/mL (≈ 3.91 µM) | 420 min | 518 ng/mL |  |  | Cc1ccccc1C(=O)Nc1ccc(C(=O)N2CCCC(NCCCN3CCN(C)CC3)c3cc(Cl)ccc32)c(C)c1 (stereo not drawn) | Non-Toxic | Non-Toxic |  |
| 0.000361 s⁻¹ | 565 ng·h/mL | 16.7 min | 2.3 µg/mL (≈ 4.06 µM) | 32 min | 360 ng/mL |  |  | Cc1ccccc1C(=O)Nc1ccc(C(=O)N2CCCC(NCCCc3ccncc3)c3cc(Cl)ccc32)c(C)c1 (stereo not drawn) | Non-Toxic | Non-Toxic |  |
| 4.72e-05 s⁻¹ | 824 ng·h/mL | 49.8 min | 2.3 µg/mL (≈ 5.12 µM) | 246 min | 394 ng/mL |  | 23 min | Cc1ccccc1C(=O)Nc1ccc(C(=O)N2CCCC(O)c3cc(Cl)ccc32)c(C)c1 (stereo not drawn) [TOLVAPTAN] | Non-Toxic | Non-Toxic |  |
| 0.000417 s⁻¹ | 544 ng·h/mL | 4.98 min | 2.3 µg/mL (≈ 4.1 µM) | 28.2 min | 679 ng/mL |  |  | Cc1ccccc1C(=O)Nc1ccc(C(=O)N2CCCC(NCCN3CCOCC3)c3cc(Cl)ccc32)c(C)c1 (stereo not drawn) | Non-Toxic | Non-Toxic |  |
| 5e-05 s⁻¹ | 1110 ng·h/mL | 19.8 min | 2.3 µg/mL (≈ 4.01 µM) | 234 min | 419 ng/mL |  |  | Cc1ccccc1C(=O)Nc1ccc(C(=O)N2CCCC(NCCCN3CCCCC3)c3cc(Cl)ccc32)c(C)c1 (stereo not drawn) | Non-Toxic | Non-Toxic |  |
| 4.72e-05 s⁻¹ | 817 ng·h/mL | 15 min | 2.3 µg/mL (≈ 4 µM) | 258 min | 453 ng/mL |  |  | Cc1ccccc1C(=O)Nc1ccc(C(=O)N2CCCC(NCCCN3CCOCC3)c3cc(Cl)ccc32)c(C)c1 (stereo not drawn) | Non-Toxic | Non-Toxic | Non-Toxic |
